{
  "source": "patent US8461186B2",
  "about": "“Use of N-piperidine derivatives for the treatment of neurodegenerative pathologies” (Medestea Research & Production S.p.A., priority 2004, dated 2013)",
  "key": {"[1]": {"test_system": "rats receiving Paraquat into Substantia Nigra", "format": "in vivo, rat", "description": "The Paraquat/rat/PS experimental model was therefore selected as the most indicative for checking the efficacy of chemical compounds according to the present invention; of these, two anti-oxidants designated MP1002 and MP1001 were used in the tests:\nMale Sprague Dawley rats (210-220 g weight) were kept on a standard laboratory diet supplemented with “Nossan Pellets” (both the animals and the pellets are available from Nossan Company, Milan, Italy) and were housed for three weeks (relative humidity 50%±10%, temperature 22° C.±1 and in a light/darkness cycle of 12 hours/12 hours, with first light at 7.30 a.m.) prior to the tests; food and water were available ad libitum.\nPrior to treatment, the rats were anaesthetized by intraperitoneal injection of 380 mg/kg weight of chloral hydrate; a stainless steel guide cannula (size 25) was implanted unilaterally in the Substantia Nigra with stereotaxic guiding and was secured to the cranium with dental acrylic material.\nThe animals (20 per test group) were allowed a recovery period of seven days prior to treatment; during this period no change in motor activity or posture was observed. Microinfusions were performed by means of a 10 μl Hamilton syringe connected to an injection cannula by means of a Teflon tube. The compounds or the vehicle (0.8% NaCl) were injected at a total volume of 1 μl/minute.\nMicroinfusion of 50 μg of Paraquat into the Substantia Nigra (n=20 rats) led to an increase in motor activity with the animals performing jumps and moving in circles in a contralateral direction relative to the injection position, about 24 minutes later; all of the animals were dead 24±2.5 hours after infusion. A further twenty animals were infused with Paraquat and twenty with Paraquat plus vehicle; about ten of the animals for each group survived 20 hours after treatment and were used to determine the development of lipid peroxidation in the Substantia Nigra."}, "[2]": {"test_system": "lipid peroxidation in the Substantia Nigra", "format": "in vivo", "settings": "Substantia Nigra, 20 hours after Paraquat alone, 50 μg microinfusion", "procedure": "Microinfusion of 50 μg of Paraquat into the Substantia Nigra (n=20 rats) led to an increase in motor activity with the animals performing jumps and moving in circles in a contralateral direction relative to the injection position, about 24 minutes later; all of the animals were dead 24±2.5 hours after infusion. […]\n[…]. Enzymol. 52, 302-310, 1978."}, "[3]": {"settings": "50 μg Paraquat into the Substantia Nigra, n=20 rats"}, "[4]": {"settings": "Paraquat alone, 50 μg microinfusion into Substantia Nigra"}},
  "data": [
    {"smiles": "C[n+]1ccc(-c2cc[n+](C)cc2)cc1", "note": "[Paraquat, reference compound]", "values": [
      {"measurement": "time after infusion at which all of the animals were dead", "setting": "[1]; [3]", "value": "24 ± 2.5", "unit": "h"},
      {"measurement": "time to increase in motor activity (jumps, contralateral circling) after microinfusion", "setting": "[1]; [3]", "value": "about 24 minutes"},
      {"measurement": "Duration (seizures)", "setting": "[1]; [4]", "value": "270 ± 15", "unit": "min"},
      {"measurement": "Latency (seizures)", "setting": "[1]; [4]", "value": "25 ± 4", "unit": "min"},
      {"measurement": "Mortality", "setting": "[1]; [4]", "value": "100 (20/20) %"},
      {"measurement": "Lipid Peroxidation", "setting": "[2]", "value": "14.6 ± 1.34 nmol MDA × h^−1 × mg prot^−1"}
    ]}
  ]
}
